Assays:
[1] = Pharmacokinetics and intestinal exposure to gemcitabine after oral dosing in mice; assay type: in vivo; details: mice, oral, 20 mg-eq. gemcitabine/kg
Experimental: Blood samples (0.5 mL) were obtained by cardiac puncture from 4 animals at each time point (1, 5, 10, 15, 30, 45 minutes and 1, 2, 4, 6 and 24 hr post-dosing). Samples were immediately transferred to tubes containing 10 μL of tetrahydrouridine (50 μg/mL in 50% methanol/water) to prevent further deamination and aliquots (100 μL) were quenched with a solution of 1% w/w formic acid in acetonitrile (300 μL). Quenched blood samples were stored at −80° C. until analyzed. Following collection of blood samples, the small intestine of each animal was removed, rinsed with saline, scraped to remove the mucosal layer, and the mucosal tissue was transferred to a pre-weighed vial containing 10 μL of tetrahydrouridine (50 μg/mL in 50% methanol/water). Sample vials were snap frozen in dry ice/acetone and stored at −80° C. until analyzed. Mucosal tissue samples were diluted 1:10 in water and 100 μL of the resulting sample was added to 400 μL of methanol.

CNT3 = target: T1, CNT3 (Homo sapiens, UniProt Q9HAS3); assay: Mass spectroscopy analysis of active transport into oocytes expressing CNT3; assay type: cell-based; details: 0.1-3 mM, 10-30 minutes, LC/MS/MS, vs non-expressing oocytes
T1 construct: expressed in transfected cells; host or cells: Xenopus laevis oocytes injected with in vitro transcribed RNA
T1 sequence (Q9HAS3 1-691): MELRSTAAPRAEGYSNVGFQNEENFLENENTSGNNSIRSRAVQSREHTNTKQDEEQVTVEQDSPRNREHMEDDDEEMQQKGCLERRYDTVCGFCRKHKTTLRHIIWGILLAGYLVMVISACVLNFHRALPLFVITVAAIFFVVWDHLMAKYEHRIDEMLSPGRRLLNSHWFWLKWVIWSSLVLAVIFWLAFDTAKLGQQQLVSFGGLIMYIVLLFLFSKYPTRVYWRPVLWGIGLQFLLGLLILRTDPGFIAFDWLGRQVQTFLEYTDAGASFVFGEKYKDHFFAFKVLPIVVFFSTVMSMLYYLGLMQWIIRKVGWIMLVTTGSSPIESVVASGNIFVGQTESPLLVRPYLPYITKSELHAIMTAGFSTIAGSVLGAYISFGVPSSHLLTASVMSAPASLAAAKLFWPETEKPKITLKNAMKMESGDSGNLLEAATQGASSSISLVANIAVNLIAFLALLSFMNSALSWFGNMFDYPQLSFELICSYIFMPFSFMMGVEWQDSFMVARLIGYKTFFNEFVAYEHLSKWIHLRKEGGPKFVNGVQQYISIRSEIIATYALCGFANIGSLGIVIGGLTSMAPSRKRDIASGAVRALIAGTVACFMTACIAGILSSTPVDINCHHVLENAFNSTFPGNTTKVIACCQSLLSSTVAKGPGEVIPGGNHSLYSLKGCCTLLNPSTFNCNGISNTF
From the text: (§1) Human CNT1, CNT2 and CNT3 transporter cDNAs were subcloned into a modified pGEM plasmid that contains 5′ and 3′ untranslated sequences from the Xenopus β-actin gene. These sequences increase RNA stability and protein expression. Plasmid cDNA was linear zed and used as template for in vitro transcription (Epicentre Technologies transcription kit, 4:1 methylated:non-methylated GTP).
(§2) (b) Mass Spectroscopy Analysis of Active Transport of Compounds into Oocytes Expressing CNT1, CNT2, CNT3, ENT1 or ENT2
(§3) Transporters were expressed in oocytes as described above (a). Experiments were performed 3-5 days following injection. Oocytes were incubated with 0.1-3 mM of compounds for 10-30 minutes in frog ringers solution (90 mM NaCl, 2 mM KCl, 1 mM MgCl2, 2 mM CaCl2, 10 mM NaHEPES, pH 7.45, and 1% BSA). Experiments were performed at room temperature. For each compound, 4-7 oocytes were incubated for each transporter or non-expressing control. Following incubation, oocytes were rapidly washed 4 times in frog ringers solution, and placed one oocyte per well in a 96 well plate. Oocytes were homogenized in 0.15 mL solution containing 50% ethanol:water or 50% methanol:water. Precipitated protein or cellular matter was pelleted by spinning plates at 3000 RPM for 5 minutes. The solvent layer containing the extracted compounds was removed from wells.
(§4) The concentration of each compound in the oocyte extract was determined by analytical LC/MS/MS. Briefly, concentrations of test compound were determined using an API 2000 LC/MS/MS instrument equipped with an Agilent 1100 binary pump and a CTC HTS-PAL autosampler. The column was a Phenomenex hydro-RP 4.6×50 mm column. The mobile phase was water with 0.1% formic acid, 0.005% heptafluorobutyric acid (A) and acetonitrile with 0.1% formic acid, 0.005% heptafluorobutyric acid (B). The gradient condition was: 5% B for 0.5 min, then to 95% B in 2.5 min, then maintained at 95% B for 1 min. The mobile phase was returned to 5% B for 2 min. A TurboIonSpray source was used on the API 2000. The analysis was done in positive ion mode and an MRM transition of each analyte was first optimized using the standard solution. 10 μL of the samples were injected onto LC/MS/MS system for analysis. The peaks were integrated using Analyst 1.2 quantitation software. Specific uptake was determined by comparison of average uptake in oocytes expressing transporters with uptake in non-expressing oocytes.

CNT1 = target: T2, CNT1 (Homo sapiens, UniProt O00337); assay: Mass spectroscopy analysis of active transport into oocytes expressing CNT1; assay type: cell-based; details: 0.1-3 mM, 10-30 minutes, LC/MS/MS, vs non-expressing oocytes
T2 construct: expressed in transfected cells; host or cells: Xenopus laevis oocytes injected with in vitro transcribed RNA
T2 sequence (O00337 1-649): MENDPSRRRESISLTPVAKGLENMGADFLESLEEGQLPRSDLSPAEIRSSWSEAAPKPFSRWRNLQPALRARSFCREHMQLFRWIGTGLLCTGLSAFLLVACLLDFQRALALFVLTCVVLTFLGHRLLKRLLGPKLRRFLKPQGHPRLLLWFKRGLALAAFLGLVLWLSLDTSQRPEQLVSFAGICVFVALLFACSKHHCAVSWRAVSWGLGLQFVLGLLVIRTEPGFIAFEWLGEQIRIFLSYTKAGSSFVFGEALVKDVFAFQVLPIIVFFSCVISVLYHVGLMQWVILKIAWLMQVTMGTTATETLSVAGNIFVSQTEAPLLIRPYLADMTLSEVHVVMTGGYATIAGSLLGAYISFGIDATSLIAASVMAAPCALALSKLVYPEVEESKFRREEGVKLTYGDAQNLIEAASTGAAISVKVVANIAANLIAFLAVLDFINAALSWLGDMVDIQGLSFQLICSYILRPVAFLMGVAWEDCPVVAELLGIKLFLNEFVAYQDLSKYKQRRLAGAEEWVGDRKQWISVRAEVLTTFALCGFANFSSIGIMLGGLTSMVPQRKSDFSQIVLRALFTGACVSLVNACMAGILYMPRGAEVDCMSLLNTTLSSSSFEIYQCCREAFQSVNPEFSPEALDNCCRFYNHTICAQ
From the text: as §1, §2, §3
The concentration of each compound in the oocyte extract was determined by analytical LC/MS/MS. Briefly, concentrations of test compound were determined using an API 2000 LC/MS/MS instrument equipped with an Agilent 1100 binary pump and a CTC HTS-PAL autosampler. The column was a Phenomenex hydro-RP 4.6×50 mm column. The mobile phase was water with 0.1% formic acid, 0.005% heptafluorobutyric acid (A) and acetonitrile with 0.1% formic acid, 0.005% heptafluorobutyric acid (B). […] The peaks were integrated using Analyst 1.2 quantitation software. Specific uptake was determined by comparison of average uptake in oocytes expressing transporters with uptake in non-expressing oocytes.

ENT1 = target: T3, ENT1 (Homo sapiens, UniProt Q99808); assay: Mass spectroscopy analysis of active transport into oocytes expressing ENT1; assay type: cell-based; details: 0.1-3 mM, 10-30 minutes, LC/MS/MS, vs non-expressing oocytes
T3 construct: expressed in transfected cells; host or cells: Xenopus laevis oocytes injected with RNA
T3 sequence (Q99808 1-456): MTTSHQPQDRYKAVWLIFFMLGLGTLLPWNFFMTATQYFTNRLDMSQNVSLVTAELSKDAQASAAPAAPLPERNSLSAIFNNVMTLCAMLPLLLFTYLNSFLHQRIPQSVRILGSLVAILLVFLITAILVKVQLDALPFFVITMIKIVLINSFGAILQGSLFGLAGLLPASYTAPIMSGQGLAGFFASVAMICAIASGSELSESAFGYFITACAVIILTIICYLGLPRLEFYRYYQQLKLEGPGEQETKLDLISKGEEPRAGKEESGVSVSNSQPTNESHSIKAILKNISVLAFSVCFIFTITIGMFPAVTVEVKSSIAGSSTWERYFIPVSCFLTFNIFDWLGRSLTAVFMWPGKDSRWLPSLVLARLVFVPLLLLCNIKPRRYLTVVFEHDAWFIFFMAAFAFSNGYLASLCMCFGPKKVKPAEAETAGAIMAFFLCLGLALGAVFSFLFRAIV
Experimental: as §2, §3, §4

ENT2 = target: T4, ENT2 (Homo sapiens, UniProt Q14542); assay: Mass spectroscopy analysis of active transport into oocytes expressing ENT2; assay type: cell-based; details: 0.1-3 mM, 10-30 minutes, LC/MS/MS, vs non-expressing oocytes
T4 construct: expressed in transfected cells; host or cells: Xenopus laevis oocytes injected with RNA
T4 sequence (Q14542 1-456): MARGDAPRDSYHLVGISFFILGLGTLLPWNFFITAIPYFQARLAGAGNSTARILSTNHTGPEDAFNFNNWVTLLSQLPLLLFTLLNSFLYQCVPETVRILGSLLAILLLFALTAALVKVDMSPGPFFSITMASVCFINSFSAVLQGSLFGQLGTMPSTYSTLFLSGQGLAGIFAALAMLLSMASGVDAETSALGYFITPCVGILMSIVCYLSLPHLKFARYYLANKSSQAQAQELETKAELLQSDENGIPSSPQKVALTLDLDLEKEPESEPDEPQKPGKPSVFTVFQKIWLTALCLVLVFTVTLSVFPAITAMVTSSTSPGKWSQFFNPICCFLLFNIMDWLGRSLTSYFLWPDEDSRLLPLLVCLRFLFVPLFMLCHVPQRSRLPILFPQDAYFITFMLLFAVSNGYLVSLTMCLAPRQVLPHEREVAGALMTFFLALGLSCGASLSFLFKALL
Experimental: as §2, §3, §4

| SMILES | Oral bioavailability as gemcitabine (in words) [1] | Specific uptake into oocytes expressing CNT3 (CNT3) | Specific uptake into oocytes expressing CNT1 (CNT1) | Specific uptake into oocytes expressing ENT1 (ENT1) | Specific uptake into oocytes expressing ENT2 (ENT2) |
| --- | --- | --- | --- | --- | --- |
| CC(C)[C@H](N)C(=O)O[C@@H]1[C@@H](CO)O[C@@H](n2ccc(N)nc2=O)C1(F)F [Compound 3, β-1-(4-Amino-2-oxo-1H-pyrimidin-1-yl)-3-O-(L-valinyl)-2-deoxy-2,2-difluororibose] | substantial oral bioavailability | – | – | – | – |
| CCOC(=O)Nc1ccn([C@@H]2O[C@H](CO)[C@@H](O)C2(F)F)c(=O)n1 [Compound 11, β-1-(4-Ethoxycarbonylamino-2-oxo-1H-pyrimidin-1-yl)-2-deoxy-2,2-difluororibose] | substantial oral bioavailability | Significant uptake over background | Significant uptake over background | Significant uptake over background | Significant uptake over background |
| CCCCCOC(=O)Nc1ccn([C@@H]2O[C@H](CO)[C@@H](O)C2(F)F)c(=O)n1 [Compound 26, β-1-(4-Pentyloxycarbonylamino-2-oxo-1H-pyrimidin-1-yl)-2-deoxy-2,2-difluororibose] | substantial oral bioavailability | specific uptake was observed | – | specific uptake was observed | specific uptake was observed |
| O=C(Nc1ccn([C@@H]2O[C@H](CO)[C@@H](O)C2(F)F)c(=O)n1)OCC(F)(F)F [Compound 36, β-1-(4-(1,1,1-Trifluoroethyl)oxycarbonylamino-2-oxo-1H-pyrimidin-1-yl)-2-deoxy-2,2-difluororibose] | substantial oral bioavailability | specific uptake was observed | – | specific uptake was observed | specific uptake was observed |
| C=C(C)OC(=O)Nc1ccn([C@@H]2O[C@H](CO)[C@@H](O)C2(F)F)c(=O)n1 [Compound 38, β-1-(4-(Propen-2-yl)oxycarbonylamino-2-oxo-1H-pyrimidin-1-yl)-2-deoxy-2,2-difluororibose] | substantial oral bioavailability | Significant uptake over background | Significant uptake over background | Significant uptake over background | Significant uptake over background |
| CC(C)(C)C(=O)OCCCC(=O)Nc1ccn([C@@H]2O[C@H](CO)[C@@H](O)C2(F)F)c(=O)n1 [Compound 62, β-1-[4-(4-Pivaloyloxybutyroylamino)-2-oxo-1H-pyrimidin-1-yl]-2-deoxy-2,2-difluororibose] | substantial oral bioavailability | Significant uptake over background | Significant uptake over background | Significant uptake over background | Significant uptake over background |
| CC(C)(C)C(=O)OC(OC(=O)NCCOC(=O)Nc1ccn([C@@H]2O[C@H](CO)[C@@H](O)C2(F)F)c(=O)n1)C(C)(C)C (stereo partly shown) [Compound 63] | substantial oral bioavailability | – | – | – | – |

— patent US7265096B2 (XenoPort, Inc., priority 2002, dated 2007)
